Structures can show the parent of a compound that is named as a salt.

For this test, the system named is dogs with advanced heart failure. Description: GP-531 infusion simultaneously with 8-SPT (non-selective adenosine antagonist). In kind it is in vivo, dog. The note with it: for Cardiac output (CO) / Heart rate (HR) / LV end-diastolic pressure (LVEDP) / LV end-diastolic volume (EDV) / LV end-systolic volume (ESV) / Mean aortic pressure (mAoP) / Stroke volume (SV) / Systemic vascular resistance (SVR): GP-531 infusion simultaneously with 8-SPT infusion. On the procedure: At the completion of the 6 hour constant infusion study, a secondary study was performed in 3 heart failure dogs to assess the effects of GP-531 in the presence of the non-selective adenosine antagonist 8-p-sulfophenyl theophylline (8-SPT). After baseline hemodynamic and ventriculographic measurements, 8-SPT was administered as 10 mg/kg intravenous bolus followed by 10 mg/kg/hr constant infusion for 3 hours. Infusion of GP-531 tartrate was initiated simultaneously with infusion of 8-SPT at a dose of 10 μg/kg/hr and also maintained for 3 hours. Hemodynamic and ventriculographic measurements were made at 1, 2 and 3 hours.
All hemodynamic measurements were made during left and right heart catheterizations in anesthetized dogs at each specified study time point. Heart rate (HR), mean aortic pressure (mAoP), LV end-diastolic pressure (LVEDP), stroke volume (SV), cardiac output (CO) and systemic vascular resistance (SVR) were measured at each study time point. Left ventriculograms were performed during cardiac catheterization after completion of the hemodynamic measurements. Left ventriculograms were obtained with the dog placed on its right side and digitally recorded during the injection of 20 ml of contrast material (RENO-M-60 Squibb, Princeton, N.J.). Correction for image magnification was made using a radiopaque grid placed at the level of the LV. LV end-systolic (ESV) and end-diastolic volumes (EDV) were calculated from angiographic silhouettes using the area length method (Dodge H T, et al, Am J Cardiol. 1966; 18:10-24.). Premature beats and post-extra-systolic beats were excluded from the analysis. LV ejection fraction (EF) was calculated as the ratio of the difference of end-diastolic and end-systolic volumes to end-diastolic volume times 100, as described above.
Within group hemodynamic and angiographic data were analyzed using repeated measures analysis of variance (ANOVA) with alpha set at 0.05. If the overall ANOVA was significant, then pairwise comparisons between baseline and drug or placebo dose/time point were performed using the Student-Newman-Keuls test. For this test, a p-value of <0.05 was considered significant. All data are reported as the mean±SEM.

[1] abbreviates: HF dogs n=3, administered simultaneously with 8-SPT, 3 h.

As for `NC(=O)c1ncn(C2OC(CNCc3ccccc3)C(O)C2O)c1N` (stereo not shown) [GP-531 tartrate], under setting [1], the “Effect on CO” value is reported as “no effects”, the “Effect on EDV” value was “no effects”, the “Effect on EF” value is listed as “no effects” and the “Effect on ESV” value is given as “no effects”. For the same compound, under setting [1], the “Effect on HR” value is on record as “no effects”, the “Effect on LVEDP” value is on record as “no effects”, the “Effect on SV” value is listed as “no effects” and the “Effect on SVR” value is reported as “no effects”. Under setting [1], the “Effect on mAoP” value is on record as “no effects”.

In the case of `NC(=O)c1ncn(C2OC(CNCc3ccccc3)C(O)C2O)c1N` [GP-531, 5-amino-1-β-D-(5-benzylamino-5-deoxy-1-β-D-ribofuranosyl)imidazole-4 carboxamide], for the setting “HF dogs n=3, 1 h”, the “Cardiac output (CO)” value was 1.51 ± 0.08 L/min, the “Heart rate (HR)” value is on record as 80 ± 4 beats/min, the “LV end-diastolic pressure (LVEDP)” value came to 16 ± 0.0 mmHg and the “LV end-diastolic volume (EDV)” value is 69 ± 3 mL. For the same compound, where the note is “HF dogs n=3, 1 h”, the “LV end-systolic volume (ESV)” value came out at 50 ± 3 mL, the “Mean aortic pressure (mAoP)” value turned out to be 97 ± 9 mmHg, the “Stroke volume (SV)” value is given as 19 ± 0.6 rnl and the “Systemic vascular resistance (SVR)” value was 5089 ± 203 dynes-sec-cm^−5. Where the note is “HF dogs n=3, 2 h”, the “Cardiac output (CO)” value was 1.57 ± 0.15 L/min, the “Heart rate (HR)” value amounted to 81 ± 5 beats/min, the “LV end-diastolic pressure (LVEDP)” value came to 16 ± 0.3 mmHg and the “LV end-diastolic volume (EDV)” value amounted to 69 ± 3 mL. Further, where the note is “HF dogs n=3, 2 h”, the “LV end-systolic volume (ESV)” value stood at 49 ± 2 mL, the “Mean aortic pressure (mAoP)” value was 82 ± 6 mmHg, the “Stroke volume (SV)” value turned out to be 19 ± 0.9 rnl and the “Systemic vascular resistance (SVR)” value turned out to be 4191 ± 84 dynes-sec-cm^−5. In addition, for the setting “HF dogs n=3, 3 h”, the “Cardiac output (CO)” value was found to be 1.53 ± 0.05 L/min, the “Heart rate (HR)” value stood at 81 ± 6 beats/min, the “LV end-diastolic pressure (LVEDP)” value is 16 ± 0.3 mmHg and the “LV end-diastolic volume (EDV)” value came out at 68 ± 3 mL. Besides, for the setting “HF dogs n=3, 3 h”, the “LV end-systolic volume (ESV)” value came out at 49 ± 3 mL, the “Mean aortic pressure (mAoP)” value is 82 ± 7 mmHg, the “Stroke volume (SV)” value came to 19 ± 1.0 rnl and the “Systemic vascular resistance (SVR)” value was 4297 ± 253 dynes-sec-cm^−5. Further, the “Benefits on LV function in conjunction with 8-SPT” value (HF dogs, administered in conjunction with 8-SPT, non-selective adenosine receptor antagonist) is listed as “abolished”.

The values are drawn from US9492468B2, “Methods and compositions for treatment of acute heart failure” (PERICOR THERAPEUTICS, INC., priority 2008, dated 2016).
